In brackets after ≈: the same amount, converted by molar mass. Read-outs that look alike come from different tables or passages of the source. Peptide text beside a SMILES is read from it.
Legend:
[1] = tested on: E. coli ML-35p; assay: Fluorometric resazurin assay of bacterial metabolic activity; format: cell-based, Escherichia coli; conditions: ¼ MIC AMP + ¼ MIC poviargolum; became comparable to ½ MIC of the peptide
Method: The decline in metabolic activity of bacterial cells faced against test substances or their combinations was tracked using resazurin dye, also known as alamarBlue. […] Thus, resazurin-to-resorufin conversion was primarily associated with energy metabolism impairment.
The experimental procedure was basically the same as for permeability testing except for the substitution of the markers by 120 μM resazurin and the addition of 0.1% MHB to provide bacteria with a metabolic substrate. An additional control without both antimicrobials and bacterial cells was included to imitate the zero metabolic activity level. Though resazurin-to-resorufin transformation can be observed via either spectrometry or fluorimetry, the latter was preferred as a more sensitive method. Experiments were conducted in 96-well white opaque plates. Temperature and shaking parameters were left unchanged. Fluorescence intensity was measured at 590 nm with excitation at 560 nm. Data were collected every 3 min for 4–6 h using a Gemini EM plate spectrofluorimeter (Molecular Devices, San Jose, CA, USA).

[2] = tested on: A. baumannii 7226/16; assay: Crystal violet assay of biofilm formation; format: cell-based, Acinetobacter baumannii; conditions: median of 3 independent experiments; for Minimal FECI, AMP + CAPB, biofilm formation: combination with cocamidopropyl betaine; for Minimal FECI, AMP + DXD, biofilm formation: combination with dioxydin; for Minimal FECI, AMP + ETA, biofilm formation: combination with etidronic acid; for Minimal FECI, AMP + PTS, biofilm formation: combination with prontosan; for MECBF partially inhibiting bacterial biofilms: minimal concentration with significant decrease vs intact control (Mann–Whitney, p < 0.05), 24 h, 37 °C, MHB
Method: The impact of the tested antimicrobials and their combinations on the formation of biofilms was quantitated as per the crystal violet assay protocol published by Merritt et al.. Testing was performed in 96-well immunological plates with U-shaped bottoms. Overnight cultures of tested bacteria in MHB were diluted by a factor of 50, mixed 1:1 with 50 μL of active compounds or combinations in the same growth medium adjusted to double the desired final concentration, and left to form biofilms for 24 h at 37 °C. Experimental samples were quadruplicated, and control without antimicrobials was octuplicated.
Then, the liquid content of the test plates was discarded, and the plates were gently washed in still water from residual traces of unattached planktonic bacteria. Each well was supplied with 125 μL 0.1% aqueous solution of crystal violet dye for 10 min at room temperature to stain biofilm components left attached to the surface. After staining, the plates were washed with clear water once more to remove excessive dye and left to air-dry. To quantify the amount of the bound dye corresponding to the thickness of the formed biofilm, it was redissolved in 30% acetic acid, 200 μL of which was introduced into each well. After 15 min at room temperature, the content of the wells was mixed by repetitive pipetting to ensure complete dye extraction, and 125 μL of each sample was transferred well-by-well into 96-well clear flat-bottom plates for spectrophotometric examination. OD was measured at 580 nm. Final results were calculated as medians based on three independent experiments.
The minimal concentrations of AMPs and antiseptics causing a statistically significant inhibitory effect on biofilm formation (i.e., a statistically significant decrease compared with the control biofilm formed by the intact bacteria; Mann–Whitney U-test, p < 0.05) are shown in Table 3 and are later referenced as MECBF (for minimal effective concentration regarding biofilm formation). The exact value of such a minimal effect is admittedly small, within the range of a 10–20% decrease in the density of the emerging biofilm. Thus, the practical usefulness of such an effect, even if strengthened in combinations, is quite questionable; however, from the academic point of view, even slight changes can provide us with information on the mode of interaction between AMPs and antiseptics and allow us to make certain assumptions about the nature of such interactions.
Analyzing the combined action of AMPs and antiseptics (AS) in sub-microbicidal concentrations toward biofilms, we adopted the same approach based on the calculation of fractional indices as the one we used while testing antimicrobial activity on planktonic bacteria. For combinations, the series of concentrations from [MECBF(AMP) + MECBF(AS)], [½MECBF(AMP) + ½MECBF(AS)] and down to [1/32 × MECBF(AMP) + 1/32 × MECBF(AS)] was analyzed. […] The fractional indices, denoted here as fractional effective concentration indices (FECIs), were calculated as follows: FECI = [AMP]/MECBF(AMP) + [AS]/MECBF(AS), where [AMP] and [AS] are the concentration of AMP and antiseptic in a combination that has a statistically significant inhibitory effect on the formation of biofilms if compared with the intact control (Mann–Whitney U-test, p < 0.05). The minimal FECI > 4 was interpreted as antagonism, FECI ≤ 0.5 as synergy, 0.5 < FECI ≤ 1 as additivity, and 1 < FECI ≤ 4 as independent action.

[3] = tested on: E. coli ML-35p; assay: Broth microdilution assay (MIC, planktonic bacteria); format: cell-based, Escherichia coli; conditions: antiseptics and surfactants, MHB, overnight 37 °C, median of 3–4 independent experiments, prontosan as polyhexanide
Method: In this regard the test plates were preincubated for 1 h at 37 °C with 0.1% bovine serum albumin (BSA) in distilled water before use. Bacteria were grown overnight at 37 °C with shaking in 2.1% Müller–Hinton broth (MHB), and then a small aliquot was transferred into the fresh portion of the same medium for another 2–3 h on the day of the experiment to provide us with the log phase bacterial suspension. Concentration of bacterial cells in suspension was evaluated based on absorbance at 620 nm and diluted down to 1 × 10^6 CFU/mL with MHB. Equal volumes of the prepared bacterial suspension in MHB and two-fold serial dilutions of the antimicrobials in 10 mM sodium phosphate (Na-P) buffer (pH 7.4) with 0.1% BSA were mixed and incubated overnight at 37 °C. The lowest concentration where no bacterial growth was observed the next day under visual examination was considered the minimal inhibitory concentration. The test was repeated at least three times, and the final MIC value was established as a median result. Each experiment was conducted in triplicates. Terasaki microplates (10 µL end volume, V-shaped bottom; Sarstedt, Nümbrecht, Germany) were used.

[4] = sub-microbicidal concentrations

CC[C@H](C)[C@H](NC(=O)[C@H](CCCNC(=N)N)NC(=O)[C@@H](NC(=O)[C@@H]1CCCN1C(=O)[C@@H]1CCCN1C(=O)[C@H](CCCNC(=N)N)NC(=O)[C@H](CCCNC(=N)N)NC(=O)[C@H](Cc1ccccc1)NC(=O)[C@@H]1CCCN1C(=O)[C@H](CC(C)C)NC(=O)[C@H](CCCNC(=N)N)NC(=O)[C@H](Cc1ccccc1)NC(=O)[C@@H](N)CCCNC(=N)N)[C@@H](C)CC)C(=O)N[C@@H](Cc1c[nH]cn1)C(=O)N1CCC[C@H]1C(=O)N1CCC[C@H]1C(=O)N1CCC[C@H]1C(=O)N[C@@H](Cc1ccccc1)C(=O)N[C@@H](Cc1ccc(O)cc1)C(=O)N1CCC[C@H]1C(=O)N1CCC[C@H]1C(=O)N[C@@H](Cc1ccccc1)C(=O)N[C@@H](CCCNC(=N)N)C(=O)N[C@@H](CCCNC(=N)N)C(=O)N[C@@H](Cc1ccccc1)C(=O)N[C@@H](CC(C)C)C(=O)O [ChBac3.4] (H-RFRLPFRRPPIRIHPPPFYPPFRRFL-OH; N-terminus assumed)
Effect of poviargolum on development of the AMP's suppression of bacterial metabolic activity [1]: significantly accelerated
Minimal FECI, AMP + CAPB, biofilm formation [2, 4]: 0.5
Minimal FECI, AMP + DXD, biofilm formation [2, 4]: 1
Minimal FECI, AMP + ETA, biofilm formation [2, 4]: 1.12
Minimal FECI, AMP + PVG, biofilm formation ([2]; combination with poviargolum, sub-microbicidal concentrations): 1
Minimal FECI, AMP + PTS, biofilm formation [2, 4]: 0.5
MECBF partially inhibiting bacterial biofilms [2]: 1/16

CC(O)(P(=O)(O)O)P(=O)(O)O [Etidronic acid]
MIC ([3]; Escherichia coli, ML35P, read-out: MIC): 50 mg/mL (≈ 243 mM)
MECBF partially inhibiting bacterial biofilms [2]: 1/128

CC(C)C[C@H](NC(=O)[C@H](CCCNC(=N)N)NC(=O)CNC(=O)CNC(=O)[C@@H](N)CCCNC(=N)N)C(=O)N[C@H]1CSSC[C@@H](C(=O)N[C@H](C(=O)NCC(=O)N[C@@H](CCCNC(=N)N)C(N)=O)C(C)C)NC(=O)[C@H](C(C)C)NC(=O)[C@@H]2CSSC[C@H](NC(=O)[C@H](Cc3ccc(O)cc3)NC1=O)C(=O)N[C@@H](CCCNC(=N)N)C(=O)N[C@@H](CCCNC(=N)N)C(=O)N[C@@H](CCCNC(=N)N)C(=O)N[C@@H](Cc1ccccc1)C(=O)N2 [PG-1, protegrin 1]
Effect of poviargolum on development of the AMP's suppression of bacterial metabolic activity [1]: significantly accelerated
Minimal FECI, AMP + CAPB, biofilm formation [2, 4]: 0.5
Minimal FECI, AMP + DXD, biofilm formation [2, 4]: 1.12
Minimal FECI, AMP + ETA, biofilm formation [2, 4]: 1.12
Minimal FECI, AMP + PTS, biofilm formation [2, 4]: 0.25
MECBF partially inhibiting bacterial biofilms [2]: 1/32

[O-][n+]1c(CO)c(CO)[n+]([O-])c2ccccc21 [Dioxydin]
MECBF partially inhibiting bacterial biofilms [2]: 1/16

Cocamidopropyl betaine
MIC [3]: >50,000 µg/mL
MECBF partially inhibiting bacterial biofilms [2]: 1/32
